In the supplement of paper PMC10307832:

Experiments:
Test in all cases: relative viability (nuclei count vs DMSO), 5 days (fraction); higher = more cells survive
[1] = tested on: 201T
Summary of the method: (§1)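 Medians of duplicate plates are given as relative viability. That measure is the nuclei count in treated wells divided by the count in vehicle wells. Counts were taken on 4× images of lung cancer cell lines in 1536-well plates, 5 days after pin-tool dosing the day after seeding with one drug alone or a fixed anchor-drug dose plus five library-drug doses (not always all listed) in √10 steps.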

[2] = tested on: BEN
Summary of the method: as §1

[3] = tested on: COR-L 105
Summary of the method: as §1

[4] = tested on: EKVX
Summary of the method: as §1

[5] = tested on: EPLC-272H
Summary of the method: as §1

[6] = tested on: H3255
Summary of the method: as §1

[7] = tested on: HCC-44
Summary of the method: as §1

[8] = tested on: HCC-827
Summary of the method: as §1

[9] = tested on: LCLC-97TM1
Summary of the method: as §1

[10] = tested on: LOU-NH91
Summary of the method: as §1

[11] = tested on: LU99A
Summary of the method: as §1

[12] = tested on: NCI-H1437
Summary of the method: as §1

[13] = tested on: NCI-H1666
Summary of the method: as §1

[14] = tested on: NCI-H1975
Summary of the method: as §1

[15] = tested on: NCI-H2085
Summary of the method: as §1

[16] = tested on: NCI-H2087
Summary of the method: as §1

[17] = tested on: NCI-H2170
Summary of the method: as §1

[18] = tested on: NCI-H647
Summary of the method: as §1

[19] = tested on: NCI-H650
Summary of the method: as §1

[20] = tested on: PC-3 [JPC-3]
Summary of the method: as §1

[21] = tested on: SW 1573
Summary of the method: as §1

`Nc1ccn([C@@H]2O[C@H](CO)[C@@H](O)[C@@H]2O)c(=O)n1` [Cytarabine] + CS(=O)(=O)CCNCc1ccc(-c2ccc3ncnc(Nc4ccc(OCc5cccc(F)c5)c(Cl)c4)c3c2)o1 [Lapatinib] (partner 2 µM) showed a relative viability ([1]; first compound 0.005 µM) of 1.08, a relative viability ([1]; first compound 0.01581 µM) of 0.997 and a relative viability ([1]; first compound 0.05 µM) of 1.04. It also gave a relative viability ([1]; first compound 0.1581 µM) of 0.889, a relative viability ([1]; first compound 0.5 µM) of 0.919 and a relative viability ([2]; first compound 0.005 µM) of 0.606. The relative viability ([2]; first compound 0.01581 µM) was 0.549, the relative viability ([2]; first compound 0.05 µM) was 0.414 and the relative viability ([2]; first compound 0.1581 µM) was 0.333. The relative viability ([2]; first compound 0.5 µM) was 0.256, the relative viability ([3]; first compound 0.005 µM) was 0.299 and the relative viability ([3]; first compound 0.01581 µM) was 0.328. The relative viability ([3]; first compound 0.05 µM) was 0.297, the relative viability ([3]; first compound 0.1581 µM) was 0.293 and the relative viability ([3]; first compound 0.5 µM) was 0.252. For the same molecule, the relative viability ([4]; first compound 0.005 µM) was 0.225, the relative viability ([4]; first compound 0.01581 µM) was 0.18 and the relative viability ([4]; first compound 0.05 µM) was 0.153. The relative viability ([4]; first compound 0.1581 µM) was 0.138, the relative viability ([4]; first compound 0.5 µM) was 0.112 and the relative viability ([5]; first compound 0.005 µM) was 0.717. For the same molecule, the relative viability ([5]; first compound 0.01581 µM) was 0.756, the relative viability ([5]; first compound 0.05 µM) was 0.592 and the relative viability ([5]; first compound 0.1581 µM) was 0.315. It also gave a relative viability ([5]; first compound 0.5 µM) of 0.417, a relative viability ([6]; first compound 0.005 µM) of 0.268 and a relative viability ([6]; first compound 0.01581 µM) of 0.226. The relative viability ([6]; first compound 0.05 µM) was 0.158, the relative viability ([6]; first compound 0.1581 µM) was 0.197 and the relative viability ([6]; first compound 0.5 µM) was 0.188. For the same molecule, the relative viability ([7]; first compound 0.005 µM) was 0.93, the relative viability ([7]; first compound 0.01581 µM) was 0.935 and the relative viability ([7]; first compound 0.05 µM) was 0.984. The relative viability ([7]; first compound 0.1581 µM) was 0.532, the relative viability ([7]; first compound 0.5 µM) was 0.431 and the relative viability ([8]; first compound 0.005 µM) was 0.192. It also gave a relative viability ([8]; first compound 0.01581 µM) of 0.16, a relative viability ([8]; first compound 0.05 µM) of 0.141 and a relative viability ([8]; first compound 0.1581 µM) of 0.136. For the same molecule, the relative viability ([8]; first compound 0.5 µM) was 0.125, the relative viability ([9]; first compound 0.005 µM) was 1.06 and the relative viability ([9]; first compound 0.01581 µM) was 0.495. For the same molecule, the relative viability ([9]; first compound 0.05 µM) was 0.163, the relative viability ([9]; first compound 0.1581 µM) was 0.161 and the relative viability ([9]; first compound 0.5 µM) was 0.0949. The relative viability ([10]; first compound 0.005 µM) was 0.735, the relative viability ([10]; first compound 0.01581 µM) was 0.729 and the relative viability ([10]; first compound 0.05 µM) was 0.588. For the same molecule, the relative viability ([10]; first compound 0.1581 µM) was 0.669, the relative viability ([10]; first compound 0.5 µM) was 0.554 and the relative viability ([11]; first compound 0.005 µM) was 0.974. For the same molecule, the relative viability ([11]; first compound 0.01581 µM) was 0.968, the relative viability ([11]; first compound 0.05 µM) was 1.02 and the relative viability ([11]; first compound 0.1581 µM) was 0.988. It also gave a relative viability ([11]; first compound 0.5 µM) of 0.938, a relative viability ([12]; first compound 0.005 µM) of 0.548 and a relative viability ([12]; first compound 0.01581 µM) of 0.453. It also gave a relative viability ([12]; first compound 0.05 µM) of 0.378, a relative viability ([12]; first compound 0.1581 µM) of 0.177 and a relative viability ([12]; first compound 0.5 µM) of 0.147. It also gave a relative viability ([13]; first compound 0.005 µM) of 0.455, a relative viability ([13]; first compound 0.01581 µM) of 0.549 and a relative viability ([13]; first compound 0.05 µM) of 0.378. The relative viability ([13]; first compound 0.1581 µM) was 0.308, the relative viability ([13]; first compound 0.5 µM) was 0.262 and the relative viability ([14]; first compound 0.005 µM) was 0.644. For the same molecule, the relative viability ([14]; first compound 0.01581 µM) was 1.05, the relative viability ([14]; first compound 0.05 µM) was 1.09 and the relative viability ([14]; first compound 0.1581 µM) was 0.456. It also gave a relative viability ([14]; first compound 0.5 µM) of 0.372, a relative viability ([15]; first compound 0.005 µM) of 0.735 and a relative viability ([15]; first compound 0.01581 µM) of 0.725. For the same molecule, the relative viability ([15]; first compound 0.05 µM) was 0.666, the relative viability ([15]; first compound 0.1581 µM) was 0.622 and the relative viability ([15]; first compound 0.5 µM) was 0.374. The relative viability ([16]; first compound 0.005 µM) was 1.04, the relative viability ([16]; first compound 0.01581 µM) was 0.967 and the relative viability ([16]; first compound 0.05 µM) was 0.894. For the same molecule, the relative viability ([16]; first compound 0.1581 µM) was 0.678, the relative viability ([16]; first compound 0.5 µM) was 0.402 and the relative viability ([17]; first compound 0.01581 µM) was 0.233. For the same molecule, the relative viability ([17]; first compound 0.05 µM) was 0.231, the relative viability ([17]; first compound 0.1581 µM) was 0.19 and the relative viability ([17]; first compound 0.5 µM) was 0.182. For the same molecule, the relative viability ([18]; first compound 0.005 µM) was 0.596, the relative viability ([18]; first compound 0.01581 µM) was 0.411 and the relative viability ([18]; first compound 0.05 µM) was 0.27. It also gave a relative viability ([18]; first compound 0.1581 µM) of 0.128, a relative viability ([18]; first compound 0.5 µM) of 0.0883 and a relative viability ([19]; first compound 0.005 µM) of 0.735. For the same molecule, the relative viability ([19]; first compound 0.01581 µM) was 0.535, the relative viability ([19]; first compound 0.05 µM) was 0.363 and the relative viability ([19]; first compound 0.1581 µM) was 0.202. The relative viability ([19]; first compound 0.5 µM) was 0.195, the relative viability ([20]; first compound 0.005 µM) was 0.435 and the relative viability ([20]; first compound 0.01581 µM) was 0.465. The relative viability ([20]; first compound 0.05 µM) was 0.426, the relative viability ([20]; first compound 0.1581 µM) was 0.396 and the relative viability ([20]; first compound 0.5 µM) was 0.389. For the same molecule, the relative viability ([21]; first compound 0.005 µM) was 1.17, the relative viability ([21]; first compound 0.01581 µM) was 0.879 and the relative viability ([21]; first compound 0.05 µM) was 0.952. The relative viability ([21]; first compound 0.1581 µM) was 0.606 and the relative viability ([21]; first compound 0.5 µM) was 0.329.
